From paper PMC11980366, “Natural compounds target the M23B zinc metallopeptidase Mpg to modulate Neisseria gonorrhoeae Type IV pilus expression” (mBio, 2025) come the findings set out here.

For this assay, the target named is Mpg (Neisseria gonorrhoeae, UniProt Q5F676). The experiment in a line: fluorescence thermal shift (Sypro-Orange). Particulars: read-out: dTm at 5 μM. Type of assay: binding.
Chain of Mpg (Q5F676 31-430): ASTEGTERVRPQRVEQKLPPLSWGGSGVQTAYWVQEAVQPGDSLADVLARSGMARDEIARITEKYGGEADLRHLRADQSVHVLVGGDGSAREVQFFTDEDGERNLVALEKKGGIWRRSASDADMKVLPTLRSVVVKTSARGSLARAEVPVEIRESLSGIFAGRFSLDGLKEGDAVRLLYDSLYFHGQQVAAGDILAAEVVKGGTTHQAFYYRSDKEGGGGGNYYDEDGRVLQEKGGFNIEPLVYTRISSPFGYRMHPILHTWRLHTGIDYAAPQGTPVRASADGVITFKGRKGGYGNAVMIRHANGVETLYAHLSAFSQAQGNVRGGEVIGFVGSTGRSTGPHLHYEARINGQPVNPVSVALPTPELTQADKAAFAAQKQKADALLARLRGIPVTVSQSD

As to `O=C1O[C@H]2[C@@H]3OC(=O)c4cc(O)c(O)c(O)c4-c4c(O)c(O)c5oc(=O)c6c(c(O)c(O)c7oc(=O)c4c5c76)-c4c(cc(O)c(O)c4O)C(=O)OC[C@H]3OC(O)[C@@H]2OC(=O)c2cc(O)c(O)c(O)c2-c2c1cc(O)c(O)c2O` (mixture of isomers) [punicalagin], the ΔTm at 5 µM is -4.4 °C.
Next, `O=C(O)C[C@@H]1C(=O)O[C@H]2[C@H](OC(=O)c3cc(O)c(O)c(O)c3)[C@@H](OC(=O)c3cc(O)c(O)c4c3[C@H]1[C@@H](O)C(=O)O4)[C@H](OC(=O)c1cc(O)c(O)c(O)c1)O[C@@H]2COC(=O)c1cc(O)c(O)c(O)c1` [chebulinic acid]: -2.9 °C.
